Values of other authors, collected in patent US6576617B2, “Direct action anti-mycotic” (International Fiber Corporation, priority 1999, dated 2003).

Tests used:
[1] = tested on: mold, yeast, and fungal growth; details: agar medium
[2] = tested on: mold, yeast, or fungus growth; details: non-liquid foods for human consumption; conventional natamycin

For `C[C@@H]1C/C=C/C=C/C=C/C=C/[C@H](O[C@@H]2O[C@H](C)[C@@H](O)[C@H](N)[C@@H]2O)C[C@@H]2O[C@](O)(C[C@@H](O)C[C@H]3O[C@@H]3/C=C/C(=O)O1)C[C@H](O)[C@H]2C(=O)O` [natamycin], the “concentration with anti-mycotic activity” value [1] is given as at least 1 ppm and the “concentration necessary for effective mold, yeast, and fungus control” value [2] is given as “greater than 5 ppm”.
